In assay [1] the target is T1, Sterol O-acyltransferase 1 (Rattus norvegicus, UniProt O70536).
T1 sequence (O70536 whole entry): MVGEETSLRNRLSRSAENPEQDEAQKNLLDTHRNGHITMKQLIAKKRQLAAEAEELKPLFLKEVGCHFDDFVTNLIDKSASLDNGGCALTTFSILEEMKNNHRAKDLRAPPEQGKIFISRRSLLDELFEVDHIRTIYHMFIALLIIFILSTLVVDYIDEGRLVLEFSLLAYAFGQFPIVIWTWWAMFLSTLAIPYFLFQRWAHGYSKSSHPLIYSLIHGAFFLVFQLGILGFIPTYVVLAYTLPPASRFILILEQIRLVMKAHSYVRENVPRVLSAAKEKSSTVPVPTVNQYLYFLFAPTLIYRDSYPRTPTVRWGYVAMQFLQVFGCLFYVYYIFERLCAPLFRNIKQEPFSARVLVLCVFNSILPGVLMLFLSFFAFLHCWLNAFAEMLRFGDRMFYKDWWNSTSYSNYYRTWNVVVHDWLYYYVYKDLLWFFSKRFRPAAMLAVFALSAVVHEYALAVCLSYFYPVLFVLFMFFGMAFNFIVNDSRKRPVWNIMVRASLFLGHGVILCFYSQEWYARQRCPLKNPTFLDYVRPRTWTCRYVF
Kind of assay: ChEBML_28360. An excerpt:
In vitro inhibition of Acyl coenzyme A:cholesterol acyltransferase (ACAT) in rat hepatic microsomes

For assay [2], the target named is T2, Sterol O-acyltransferase 1 (Mus musculus, UniProt Q61263).
T2 sequence (Q61263 whole entry): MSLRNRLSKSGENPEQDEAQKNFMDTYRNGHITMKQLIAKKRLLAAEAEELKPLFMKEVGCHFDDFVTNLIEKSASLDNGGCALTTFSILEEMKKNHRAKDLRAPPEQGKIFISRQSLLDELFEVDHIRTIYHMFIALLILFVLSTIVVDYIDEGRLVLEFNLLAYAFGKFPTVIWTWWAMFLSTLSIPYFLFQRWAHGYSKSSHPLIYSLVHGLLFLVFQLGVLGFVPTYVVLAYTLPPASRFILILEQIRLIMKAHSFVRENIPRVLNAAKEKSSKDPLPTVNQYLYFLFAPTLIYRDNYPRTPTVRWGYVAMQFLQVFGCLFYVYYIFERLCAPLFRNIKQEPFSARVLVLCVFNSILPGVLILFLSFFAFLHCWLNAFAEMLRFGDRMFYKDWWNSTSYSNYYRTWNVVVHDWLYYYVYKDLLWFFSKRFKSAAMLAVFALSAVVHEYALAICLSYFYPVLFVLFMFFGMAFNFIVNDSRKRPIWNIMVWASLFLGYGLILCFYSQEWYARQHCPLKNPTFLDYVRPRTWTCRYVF
Kind of assay: ChEBML_28026. From the text: Inhibition of Acyl coenzyme A:cholesterol acyltransferase (ACAT) in J774 Macrophage cell culture

SMILES strings stand for the structures.

IC50 data for 23 compounds are collected here from BindingDB's records for doi:10.7270/Q2T72HDT (Dupont Pharmaceuticals, 1995).

Turning to `CN(C)c1ccc(-c2nc(SCCOCCSc3nc(-c4ccc(N(C)C)cc4)c(-c4ccc(N(C)C)cc4)[nH]3)[nH]c2-c2ccc(N(C)C)cc2)cc1`, the figures for the IC50 in assay [1] and in assay [2] were 134 nM and 370 nM, respectively.
Consider `CN(C)c1ccc(-c2nc(SCCOCCSc3[nH]cnc4ncnc3-4)[nH]c2-c2ccc(N(C)C)cc2)cc1`, for which the IC50 (as a rule, the concentration that gives 50% inhibition) in assay [1] is 2040 nM; in assay [2] it was 2990 nM.
Consider `O=C(Nc1ccc(F)cc1F)N(CCCCCSc1nc(-c2ccccc2)c(-c2ccccc2)[nH]1)c1ccccn1`, for which the values for the IC50 in assay [1] and in assay [2] were 660 nM and 790 nM, respectively.
With `c1ccc(-c2nc(SCCOCCSc3nc(-c4ccccc4)c(-c4ccccc4)[nH]3)[nH]c2-c2ccccc2)cc1`, the results for the concentration for half-maximal inhibition (IC50) in assay [1] and in assay [2] were 26 nM and 6550 nM, respectively.
For `Cc1nc2ccccc2n1CCCSCCCSc1nc(-c2ccccc2)c(-c2ccccc2)[nH]1`, the IC50 in assay [1] was 250 nM; in assay [2], 7270 nM.
On the same counts, the results for `O=C(Nc1ccc(F)cc1F)N(CCCCCSc1nc(-c2ccccc2)c(-c2ccccc2)[nH]1)CCc1ccccn1` are 80 nM and 2440 nM.
Turning to `CN(C)c1ccc(-c2nc(SCCCCCN(CCCCCSc3nc(-c4ccccc4)c(-c4ccccc4)[nH]3)C(=O)Nc3ccc(F)cc3F)[nH]c2-c2ccc(N(C)C)cc2)cc1`, the half-maximal inhibitory concentration (IC50) in assay [1] was found to be 3 nM; in assay [2], 450 nM.
As for `c1ccc(-c2nc(SCCCCCSCc3ccccn3)[nH]c2-c2ccccc2)cc1`, the IC50 turned out to be 310 nM in assay [1] and 3930 nM in assay [2].
In assay [2], `COc1ccc(-c2nc(SCCCCCN(Cc3ccccn3)C(=O)Nc3ccc(F)cc3F)[nH]c2-c2ccc(OC)cc2)cc1` displayed an IC50 of 190 nM.
For the compound `CC(C)NC(=O)N(CCCCCSc1nc(-c2ccccc2)c(-c2ccccc2)[nH]1)CCc1ccccn1`, the IC50 in assay [1] was determined as 190 nM; in assay [2], 3050 nM.
On the same counts, the results for `COc1ccc(-c2nc(SCCCCCN(CCCCCSc3nc(-c4ccccc4)c(-c4ccccc4)[nH]3)C(=O)NC(C)C)[nH]c2-c2ccc(OC)cc2)cc1` are 90 nM and 100 nM.
`COc1ccc(-c2nc(SCCOCCSc3nc(-c4ccccc4)c(-c4ccccc4)[nH]3)[nH]c2-c2ccc(OC)cc2)cc1` registered an IC50 in assay [2] of 3870 nM.
Take `CC(C)NC(=O)N(CCCCCSc1nc(-c2ccccc2)c(-c2ccccc2)[nH]1)c1ccccn1`: the IC50 in assay [1] stood at 100 nM; in assay [2], 940 nM.
On the same counts, the results for `COc1ccc(-c2nc(SCCCCCN(CCc3ccccn3)C(=O)Nc3ccc(F)cc3F)[nH]c2-c2ccc(OC)cc2)cc1` are 300 nM and 690 nM.
In assay [2], `c1ccc(-c2nc(SCCCCCOCCc3ccccn3)[nH]c2-c2ccccc2)cc1` returned an IC50 of 3920 nM.
Still for that read-out and setting: under `c1ccc(-c2nc(SCCCSCCCSc3nc(-c4ccccc4)c(-c4ccccc4)[nH]3)[nH]c2-c2ccccc2)cc1` stands 7960 nM; under `COc1ccc(-c2nc(SCCCCCN(CCc3nn[nH]n3)C(=O)NC(C)C)[nH]c2-c2ccc(OC)cc2)cc1`, 5500 nM.
Regarding `COc1ccc(-c2nc(SCCCCCN(CCc3ccccn3)C(=O)NC(C)C)[nH]c2-c2ccc(OC)cc2)cc1`, the values for the IC50 in assay [1] and in assay [2] were 260 nM and 90 nM, respectively.
On the same counts, the results for `CC(C)NC(=O)N(CCCCCSc1nc(-c2ccccc2)c(-c2ccccc2)[nH]1)CCCCCSc1nc(-c2ccc(N(C)C)cc2)c(-c2ccc(N(C)C)cc2)[nH]1` are 30 nM and 60 nM.
In assay [2], `COc1ccc(-c2nc(SCCOCCn3c(C)nc4ccccc43)[nH]c2-c2ccc(OC)cc2)cc1` had an IC50 of 3430 nM.
As for `COc1ccc(-c2nc(SCCCCCN(Cc3ccccn3)C(=O)NC(C)C)[nH]c2-c2ccc(OC)cc2)cc1`, the results for the IC50 in assay [1] and in assay [2] were 6230 nM and 60 nM, respectively.
On the same counts, the results for `COc1ccc(-c2nc(SCCCCCN(CCCCCSc3nc(-c4ccc(OC)cc4)c(-c4ccc(OC)cc4)[nH]3)C(=O)NC(C)C)[nH]c2-c2ccc(OC)cc2)cc1` are 90 nM and 10 nM.
As to `COc1ccc(-c2nc(SCCCCCN(CCCn3ccnc3)C(=O)NC(C)C)[nH]c2-c2ccc(OC)cc2)cc1`, in assay [2], it took 5500 nM to reach half-maximal inhibition (IC50).
